# Experimental data reported in PubChem BioAssay AID1919017 (Molecular Pharmacology Branch, DTP, NCI, 2023).
# Values joined by “and” are separate entries in the source; they are usually repeats but may differ in a detail not shown here. Equal entries are not always repeated.
# Tested on: SW1271 complex spheroids with HUVEC/MSC, growth, % test/control
# Experiment: Anticancer human tumor SW1271 cell line growth inhibition [AhR];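 note: spheroids exposed to agents for 7 days before readout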
# Settings: for viability, T/C: stronger effect = lower value
# Summary of the method: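 Complex tumor spheroids co-cultured with HUVEC and human MSC stroma; AhR antagonists tested in combination with standard-of-care and investigational agents. Top concentration at or near clinical Cmax (else 10 microM), half-log dilutions; growth expressed as percent test/control.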
# [1] = curve of first compound, second compound 0.1 µM
# [2] = curve of first compound, second compound 0.316 µM
# [3] = curve of first compound, second compound 1 µM
# [4] = curve of first compound, second compound 3.16 µM
# [5] = curve of first compound, second compound 10 µM
# [6] = second compound 0.1 µM, first compound 0.0316 µM
# [7] = second compound 0.1 µM, first compound 0.1 µM
# [8] = second compound 0.1 µM, first compound 0.316 µM
# [9] = second compound 0.1 µM, first compound 1 µM
# [10] = second compound 0.1 µM, first compound 3.16 µM
# [11] = second compound 0.1 µM, first compound 10 µM
# [12] = second compound 0.316 µM, first compound 0.0316 µM
# [13] = second compound 0.316 µM, first compound 0.1 µM
# [14] = second compound 0.316 µM, first compound 0.316 µM
# [15] = second compound 0.316 µM, first compound 1 µM
# [16] = second compound 0.316 µM, first compound 3.16 µM
# [17] = second compound 0.316 µM, first compound 10 µM
# [18] = second compound 1 µM, first compound 0.0316 µM
# [19] = second compound 1 µM, first compound 0.1 µM
# [20] = second compound 1 µM, first compound 0.316 µM
# [21] = second compound 1 µM, first compound 1 µM
# [22] = second compound 1 µM, first compound 3.16 µM
# [23] = second compound 1 µM, first compound 10 µM
# [24] = second compound 3.16 µM, first compound 0.0316 µM
# [25] = second compound 3.16 µM, first compound 0.1 µM
# [26] = second compound 3.16 µM, first compound 0.316 µM
# [27] = second compound 3.16 µM, first compound 1 µM
# [28] = second compound 3.16 µM, first compound 3.16 µM
# [29] = second compound 3.16 µM, first compound 10 µM
# [30] = second compound 10 µM, first compound 0.0316 µM
# [31] = second compound 10 µM, first compound 0.1 µM
# [32] = second compound 10 µM, first compound 0.316 µM
# [33] = second compound 10 µM, first compound 1 µM
# [34] = second compound 10 µM, first compound 3.16 µM
# [35] = second compound 10 µM, first compound 10 µM
compound,measurement,setting,value
NS(=O)(=O)OCC1CC(n2ccc3c(NC4CCc5ccccc54)ncnc32)CC1O (centres undefined) + Cc1cncc(-c2nc(NCCc3c[nH]c4ccccc34)c3ncn(C(C)C)c3n2)c1,IC50,[1],> 10 µM
same,IC50,[2],> 10 µM
same,IC50,[3],> 10 µM
same,IC50,[4],> 10 µM
same,IC50,[5],0.512 µM
same,"viability, T/C",[6],129%
same,"viability, T/C",[7],140%
same,"viability, T/C",[8],145%
same,"viability, T/C",[9],86%
same,"viability, T/C",[10],76.5%
same,"viability, T/C",[11],71.8%
same,"viability, T/C",[12],131%
same,"viability, T/C",[13],177%
same,"viability, T/C",[14],136%
same,"viability, T/C",[15],100%
same,"viability, T/C",[16],76.7%
same,"viability, T/C",[17],81%
same,"viability, T/C",[18],143%
same,"viability, T/C",[19],166%
same,"viability, T/C",[20],154%
same,"viability, T/C",[21],76.3%
same,"viability, T/C",[22],75%
same,"viability, T/C",[23],79%
same,"viability, T/C",[24],185%
same,"viability, T/C",[25],168%
same,"viability, T/C",[26],158%
same,"viability, T/C",[27],71.2%
same,"viability, T/C",[28],63.3%
same,"viability, T/C",[29],66.1%
same,"viability, T/C",[30],94.1%
same,"viability, T/C",[31],96.3%
same,"viability, T/C",[32],54.7%
same,"viability, T/C",[33],44.5%
same,"viability, T/C",[34],44.4%
same,"viability, T/C",[35],41.3%
COc1cc(Nc2ncc3c(n2)-c2ccc(Cl)cc2C(c2c(F)cccc2OC)=NC3)ccc1C(=O)O + Cc1cncc(-c2nc(NCCc3c[nH]c4ccccc34)c3ncn(C(C)C)c3n2)c1,IC50,[1],> 10 µM
same,IC50,[2],> 10 µM
same,IC50,[3],> 10 µM
same,IC50,[4],> 10 µM
same,IC50,[5],< 0.0316 µM
same,"viability, T/C",[6],92.7%
same,"viability, T/C",[7],91.6%
same,"viability, T/C",[8],98.6%
same,"viability, T/C",[9],93.9%
same,"viability, T/C",[10],78.3%
same,"viability, T/C",[11],67.7%
same,"viability, T/C",[12],91%
same,"viability, T/C",[13],87.8%
same,"viability, T/C",[14],92%
same,"viability, T/C",[15],91%
same,"viability, T/C",[16],98.4%
same,"viability, T/C",[17],57.5%
same,"viability, T/C",[18],81.5%
same,"viability, T/C",[19],87.2%
same,"viability, T/C",[20],88.2%
same,"viability, T/C",[21],88.6%
same,"viability, T/C",[22],81.3%
same,"viability, T/C",[23],56.2%
same,"viability, T/C",[24],95.1%
same,"viability, T/C",[25],87.5%
same,"viability, T/C",[26],91.9%
same,"viability, T/C",[27],102%
same,"viability, T/C",[28],78.9%
same,"viability, T/C",[29],67.9%
same,"viability, T/C",[30],36.1%
same,"viability, T/C",[31],50.7%
same,"viability, T/C",[32],49.5%
same,"viability, T/C",[33],50.1%
same,"viability, T/C",[34],42.5%
same,"viability, T/C",[35],40.4%
O=C(C=Cn1cnc(-c2cc(C(F)(F)F)cc(C(F)(F)F)c2)n1)NNc1cnccn1 + Cc1cncc(-c2nc(NCCc3c[nH]c4ccccc34)c3ncn(C(C)C)c3n2)c1,IC50,[1],0.913 µM
same,IC50,[2],2.33 µM
same,IC50,[3],2.47 µM
same,IC50,[4],> 3 µM
same,IC50,[5],< 0.00949 µM
same,"viability, T/C","second compound 0.1 µM, first compound 0.00949 µM",83.3%
same,"viability, T/C","second compound 0.1 µM, first compound 0.03 µM",103%
same,"viability, T/C","second compound 0.1 µM, first compound 0.0949 µM",87.1%
same,"viability, T/C","second compound 0.1 µM, first compound 0.3 µM",82.4%
same,"viability, T/C","second compound 0.1 µM, first compound 0.949 µM",48.6%
same,"viability, T/C","second compound 0.1 µM, first compound 3 µM",44.6%
same,"viability, T/C","second compound 0.316 µM, first compound 0.00949 µM",88.2%
same,"viability, T/C","second compound 0.316 µM, first compound 0.03 µM",91.9%
same,"viability, T/C","second compound 0.316 µM, first compound 0.0949 µM",88%
same,"viability, T/C","second compound 0.316 µM, first compound 0.3 µM",74.5%
same,"viability, T/C","second compound 0.316 µM, first compound 0.949 µM",65.9%
same,"viability, T/C","second compound 0.316 µM, first compound 3 µM",45.6%
same,"viability, T/C","second compound 1 µM, first compound 0.00949 µM",105%
same,"viability, T/C","second compound 1 µM, first compound 0.03 µM",96.6%
same,"viability, T/C","second compound 1 µM, first compound 0.0949 µM",97.7%
same,"viability, T/C","second compound 1 µM, first compound 0.3 µM",72.2%
same,"viability, T/C","second compound 1 µM, first compound 0.949 µM",62.8%
same,"viability, T/C","second compound 1 µM, first compound 3 µM",47%
same,"viability, T/C","second compound 3.16 µM, first compound 0.00949 µM",97.7%
same,"viability, T/C","second compound 3.16 µM, first compound 0.03 µM",88.2%
same,"viability, T/C","second compound 3.16 µM, first compound 0.0949 µM",97.5%
same,"viability, T/C","second compound 3.16 µM, first compound 0.3 µM",87.7%
same,"viability, T/C","second compound 3.16 µM, first compound 0.949 µM",67.7%
same,"viability, T/C","second compound 3.16 µM, first compound 3 µM",53.2%
same,"viability, T/C","second compound 10 µM, first compound 0.00949 µM",44.4%
same,"viability, T/C","second compound 10 µM, first compound 0.03 µM",48.4%
same,"viability, T/C","second compound 10 µM, first compound 0.0949 µM",55%
same,"viability, T/C","second compound 10 µM, first compound 0.3 µM",59.3%
same,"viability, T/C","second compound 10 µM, first compound 0.949 µM",50.1%
same,"viability, T/C","second compound 10 µM, first compound 3 µM",47.7%
O=C(c1cc(Cc2n[nH]c(=O)c3ccccc23)ccc1F)N1CCN(C(=O)C2CC2)CC1,"viability, T/C",compound 0.0316 µM,93% and 99.8% (2×)
same,"viability, T/C",compound 0.1 µM,101% and 109% and 92.5%
same,"viability, T/C",compound 0.316 µM,90.8% and 96.5% and 82.1%
same,"viability, T/C",compound 1 µM,84.3% and 88.2% and 89.1%
same,"viability, T/C",compound 3.16 µM,80.5% and 98.7% and 74.1%
same,"viability, T/C",compound 10 µM,66% and 77.4% and 76.5%
same,IC50,curve of compound,> 10 µM
O=C(C=Cn1cnc(-c2cc(C(F)(F)F)cc(C(F)(F)F)c2)n1)NNc1cnccn1,"viability, T/C",compound 0.00949 µM,95.2% and 89.5% and 105%
same,"viability, T/C",compound 0.03 µM,92.7% and 78.8% and 61.8%
same,"viability, T/C",compound 0.0949 µM,79.7% and 88.9% and 77.8%
same,"viability, T/C",compound 0.3 µM,78.9% and 65.1% and 64.9%
same,"viability, T/C",compound 0.949 µM,55% and 57% and 44.6%
same,"viability, T/C",compound 3 µM,42.1% and 41.2% and 35.7%
same,IC50,curve of compound,1.66 µM and 1.43 µM and 0.701 µM
Nc1ncn(C2CC(O)C(CO)O2)c(=O)n1 (centres undefined) + Cc1ccccc1N=Nc1ccc(NC(=O)c2ccnn2C)c(C)c1,IC50,[1],> 1 µM
same,IC50,[2],> 1 µM
same,IC50,[3],> 1 µM
same,IC50,[4],> 1 µM
same,IC50,[5],> 1 µM
same,"viability, T/C","second compound 0.1 µM, first compound 0.00316 µM",81.5%
same,"viability, T/C","second compound 0.1 µM, first compound 0.01 µM",86.8%
same,"viability, T/C",[6],64.3%
same,"viability, T/C",[7],60.1%
same,"viability, T/C",[8],63%
same,"viability, T/C",[9],49.4%
same,"viability, T/C","second compound 0.316 µM, first compound 0.00316 µM",82.2%
same,"viability, T/C","second compound 0.316 µM, first compound 0.01 µM",66.9%
same,"viability, T/C",[12],69%
same,"viability, T/C",[13],76.1%
same,"viability, T/C",[14],72%
same,"viability, T/C",[15],59.6%
same,"viability, T/C","second compound 1 µM, first compound 0.00316 µM",79.8%
same,"viability, T/C","second compound 1 µM, first compound 0.01 µM",71.3%
same,"viability, T/C",[18],72.7%
same,"viability, T/C",[19],62.9%
same,"viability, T/C",[20],75.4%
same,"viability, T/C",[21],60.2%
same,"viability, T/C","second compound 3.16 µM, first compound 0.00316 µM",72.7%
same,"viability, T/C","second compound 3.16 µM, first compound 0.01 µM",83.2%
same,"viability, T/C",[24],79.9%
same,"viability, T/C",[25],63.7%
same,"viability, T/C",[26],64.1%
same,"viability, T/C",[27],59%
same,"viability, T/C","second compound 10 µM, first compound 0.00316 µM",76.1%
same,"viability, T/C","second compound 10 µM, first compound 0.01 µM",65.5%
same,"viability, T/C",[30],66.1%
same,"viability, T/C",[31],71.5%
same,"viability, T/C",[32],65%
same,"viability, T/C",[33],69.9%
